Our source for the IC50 and EC50 values is BindingDB's records for doi:10.1016/j.bmc.2020.115716 (Chemical Diversity Research Institute, 2020).

The nature of one experiment: Inhibition of HCV genotype 2a NS5A infected in Huh7 cells assessed as reduction in viral replication incubated 3 days and measured by bright Glo-luciferase reporter gene assay. Background: Reporter assays use an easily measured gene product as a stand-in for the process of interest.
As for `COC(=O)N[C@H](C(=O)N1CCC[C@H]1c1ncc(-c2ccc(C#CC#Cc3cnc([C@@H]4CCCN4C(=O)[C@@H](NC(=O)OC)C(C)C)[nH]3)cc2)[nH]1)c1ccccc1`, the IC50 stood at 0.12 nM.
With `COC(=O)N[C@H](C(=O)N1CCC[C@H]1c1ncc(C#CC#Cc2ccc(-c3cnc([C@@H]4CCCN4C(=O)[C@@H](NC(=O)OC)C(C)C)[nH]3)cc2-c2cccc(-c3ccccc3)c2)[nH]1)C(C)C`, the half-maximal inhibitory concentration (IC50) is 0.449 nM.
Same read-out and setting: for `COC(=O)N[C@H](C(=O)N1CCC[C@H]1c1ncc(C#CC#Cc2c(C)cc(-c3cnc([C@@H]4CCCN4C(=O)[C@@H](NC(=O)OC)C(C)C)[nH]3)cc2-c2ccccc2)[nH]1)C(C)C` the value was 0.008 nM; for `COC(=O)N[C@H](C(=O)N1CCC[C@H]1c1ncc(C#CC#Cc2c(F)cc(-c3cnc([C@@H]4CCCN4C(=O)[C@@H](NC(=O)OC)C(C)C)[nH]3)cc2-c2ccccc2)[nH]1)C(C)C`, 0.015 nM.
`COC(=O)N[C@H](C(=O)N1CCC[C@H]1c1ncc(C#CC#Cc2ccc(-c3cnc([C@@H]4CCCN4C(=O)[C@@H](NC(=O)OC)C(C)C)[nH]3)cc2-c2ccccc2)[nH]1)C(C)C`: the IC50 was determined as 0.03 nM.
On the same count and under the same terms, for `COC(=O)N[C@H](C(=O)N1CCC[C@H]1c1ncc(-c2cc(F)c(C#CC#Cc3cnc([C@@H]4CCCN4C(=O)[C@H](NC(=O)OC)c4ccccc4)[nH]3)c(-c3ccccc3)c2)[nH]1)C(C)C` the value was 0.005 nM.

A short description of the next experiment: Inhibition of HCV genotype 4a NS5A infected in Huh7 cells assessed as reduction in viral replication incubated 3 days and measured by bright Glo-luciferase reporter gene assay.
Turning to `COC(=O)N[C@H](C(=O)N1CCC[C@H]1c1ncc(-c2ccc(C#CC#Cc3cnc([C@@H]4CCCN4C(=O)[C@@H](NC(=O)OC)C(C)C)[nH]3)cc2)[nH]1)c1ccccc1`, the IC50 was 0.123 nM.
Same read-out and setting: for `COC(=O)N[C@H](C(=O)N1CCC[C@H]1c1ncc(C#CC#Cc2ccc(-c3cnc([C@@H]4CCCN4C(=O)[C@@H](NC(=O)OC)C(C)C)[nH]3)cc2-c2cccc(-c3ccccc3)c2)[nH]1)C(C)C` the value was 0.019 nM.
As for `COC(=O)N[C@H](C(=O)N1CCC[C@H]1c1ncc(C#CC#Cc2c(C)cc(-c3cnc([C@@H]4CCCN4C(=O)[C@@H](NC(=O)OC)C(C)C)[nH]3)cc2-c2ccccc2)[nH]1)C(C)C`, the IC50 amounted to 0.006 nM.
As to `COC(=O)N[C@H](C(=O)N1CCC[C@H]1c1ncc(C#CC#Cc2c(F)cc(-c3cnc([C@@H]4CCCN4C(=O)[C@@H](NC(=O)OC)C(C)C)[nH]3)cc2-c2ccccc2)[nH]1)C(C)C`, the half-inhibitory concentration (IC50) is 0.019 nM.
Same read-out and setting: for `COC(=O)N[C@H](C(=O)N1CCC[C@H]1c1ncc(C#CC#Cc2ccc(-c3cnc([C@@H]4CCCN4C(=O)[C@@H](NC(=O)OC)C(C)C)[nH]3)cc2-c2ccccc2)[nH]1)C(C)C` the value was 0.007 nM; for `COC(=O)N[C@H](C(=O)N1CCC[C@H]1c1ncc(-c2cc(F)c(C#CC#Cc3cnc([C@@H]4CCCN4C(=O)[C@H](NC(=O)OC)c4ccccc4)[nH]3)c(-c3ccccc3)c2)[nH]1)C(C)C`, 0.012 nM.

The next experiment is described as follows: Inhibition of HCV genotype 1b NS5A infected in Huh7 cells assessed as reduction in viral replication incubated 3 days and measured by Bright-Glo luciferase assay.
As for `COC(=O)N[C@H](C(=O)N1CCC[C@H]1c1ncc(-c2ccc(C#CC#Cc3cnc([C@@H]4CCCN4C(=O)[C@@H](NC(=O)OC)C(C)C)[nH]3)cc2)[nH]1)c1ccccc1`, the concentration for a half-maximal effect (EC50) was found to be 0.012 nM.
As to `COC(=O)N[C@H](C(=O)N1CCC[C@H]1c1ncc(C#CC#Cc2ccc(-c3cnc([C@@H]4CCCN4C(=O)[C@@H](NC(=O)OC)C(C)C)[nH]3)cc2-c2ccccc2)[nH]1)C(C)C`, the 50% effective concentration (EC50) amounted to 0.002 nM.

A short description of the next experiment: Inhibition of HCV genotype 5a NS5A infected in Huh7 cells assessed as reduction in viral replication incubated 3 days and measured by bright Glo-luciferase reporter gene assay.
As to `COC(=O)N[C@H](C(=O)N1CCC[C@H]1c1ncc(-c2ccc(C#CC#Cc3cnc([C@@H]4CCCN4C(=O)[C@@H](NC(=O)OC)C(C)C)[nH]3)cc2)[nH]1)c1ccccc1`, the concentration for half-maximal inhibition (IC50) worked out at 0.2 nM.
For `COC(=O)N[C@H](C(=O)N1CCC[C@H]1c1ncc(C#CC#Cc2ccc(-c3cnc([C@@H]4CCCN4C(=O)[C@@H](NC(=O)OC)C(C)C)[nH]3)cc2-c2cccc(-c3ccccc3)c2)[nH]1)C(C)C`, the concentration for half-maximal inhibition (IC50) came out at 0.763 nM.
For the molecule `COC(=O)N[C@H](C(=O)N1CCC[C@H]1c1ncc(C#CC#Cc2c(C)cc(-c3cnc([C@@H]4CCCN4C(=O)[C@@H](NC(=O)OC)C(C)C)[nH]3)cc2-c2ccccc2)[nH]1)C(C)C`, the concentration for half-maximal inhibition (IC50) came to 0.027 nM.
On the same count and under the same terms, for `COC(=O)N[C@H](C(=O)N1CCC[C@H]1c1ncc(C#CC#Cc2c(F)cc(-c3cnc([C@@H]4CCCN4C(=O)[C@@H](NC(=O)OC)C(C)C)[nH]3)cc2-c2ccccc2)[nH]1)C(C)C` the value was 0.12 nM; for `COC(=O)N[C@H](C(=O)N1CCC[C@H]1c1ncc(C#CC#Cc2ccc(-c3cnc([C@@H]4CCCN4C(=O)[C@@H](NC(=O)OC)C(C)C)[nH]3)cc2-c2ccccc2)[nH]1)C(C)C`, 0.129 nM.
Consider `COC(=O)N[C@H](C(=O)N1CCC[C@H]1c1ncc(-c2cc(F)c(C#CC#Cc3cnc([C@@H]4CCCN4C(=O)[C@H](NC(=O)OC)c4ccccc4)[nH]3)c(-c3ccccc3)c2)[nH]1)C(C)C`, for which the IC50 turned out to be 0.026 nM.

A further experiment in a line: Inhibition of HCV genotype 1a NS5A infected in Huh7 cells assessed as reduction in viral replication incubated 3 days and measured by bright Glo-luciferase reporter gene assay.
For the molecule `COC(=O)N[C@H](C(=O)N1CCC[C@H]1c1ncc(-c2ccc(C#CC#Cc3cnc([C@@H]4CCCN4C(=O)[C@@H](NC(=O)OC)C(C)C)[nH]3)cc2)[nH]1)c1ccccc1`, the IC50 stood at 1.34 nM.
Regarding `COC(=O)N[C@H](C(=O)N1CCC[C@H]1c1ncc(C#CC#Cc2ccc(-c3cnc([C@@H]4CCCN4C(=O)[C@@H](NC(=O)OC)C(C)C)[nH]3)cc2-c2cccc(-c3ccccc3)c2)[nH]1)C(C)C`, the IC50 is 0.47 nM.
For `COC(=O)N[C@H](C(=O)N1CCC[C@H]1c1ncc(C#CC#Cc2c(C)cc(-c3cnc([C@@H]4CCCN4C(=O)[C@@H](NC(=O)OC)C(C)C)[nH]3)cc2-c2ccccc2)[nH]1)C(C)C`, the IC50 was 0.037 nM.
On to `COC(=O)N[C@H](C(=O)N1CCC[C@H]1c1ncc(C#CC#Cc2c(F)cc(-c3cnc([C@@H]4CCCN4C(=O)[C@@H](NC(=O)OC)C(C)C)[nH]3)cc2-c2ccccc2)[nH]1)C(C)C`, for which the IC50 was 0.064 nM.
With `COC(=O)N[C@H](C(=O)N1CCC[C@H]1c1ncc(C#CC#Cc2ccc(-c3cnc([C@@H]4CCCN4C(=O)[C@@H](NC(=O)OC)C(C)C)[nH]3)cc2-c2ccccc2)[nH]1)C(C)C`, the IC50 came out at 0.072 nM.
Take `COC(=O)N[C@H](C(=O)N1CCC[C@H]1c1ncc(-c2cc(F)c(C#CC#Cc3cnc([C@@H]4CCCN4C(=O)[C@H](NC(=O)OC)c4ccccc4)[nH]3)c(-c3ccccc3)c2)[nH]1)C(C)C`: the 50% inhibitory concentration (IC50) is 0.051 nM.

Another experiment is described as follows: Inhibition of HCV genotype 3a NS5A infected in Huh7 cells assessed as reduction in viral replication incubated 3 days and measured by bright Glo-luciferase reporter gene assay.
As for `COC(=O)N[C@H](C(=O)N1CCC[C@H]1c1ncc(-c2ccc(C#CC#Cc3cnc([C@@H]4CCCN4C(=O)[C@@H](NC(=O)OC)C(C)C)[nH]3)cc2)[nH]1)c1ccccc1`, the IC50 is 4.92 nM.
For `COC(=O)N[C@H](C(=O)N1CCC[C@H]1c1ncc(C#CC#Cc2ccc(-c3cnc([C@@H]4CCCN4C(=O)[C@@H](NC(=O)OC)C(C)C)[nH]3)cc2-c2cccc(-c3ccccc3)c2)[nH]1)C(C)C`, the IC50 worked out at 2.79 nM.
Turning to `COC(=O)N[C@H](C(=O)N1CCC[C@H]1c1ncc(C#CC#Cc2c(C)cc(-c3cnc([C@@H]4CCCN4C(=O)[C@@H](NC(=O)OC)C(C)C)[nH]3)cc2-c2ccccc2)[nH]1)C(C)C`, the 50% inhibitory concentration (IC50) was 0.364 nM.
Still for that read-out and setting: for `COC(=O)N[C@H](C(=O)N1CCC[C@H]1c1ncc(C#CC#Cc2c(F)cc(-c3cnc([C@@H]4CCCN4C(=O)[C@@H](NC(=O)OC)C(C)C)[nH]3)cc2-c2ccccc2)[nH]1)C(C)C` the value was 0.459 nM; for `COC(=O)N[C@H](C(=O)N1CCC[C@H]1c1ncc(C#CC#Cc2ccc(-c3cnc([C@@H]4CCCN4C(=O)[C@@H](NC(=O)OC)C(C)C)[nH]3)cc2-c2ccccc2)[nH]1)C(C)C`, 1.31 nM.
Consider `COC(=O)N[C@H](C(=O)N1CCC[C@H]1c1ncc(-c2cc(F)c(C#CC#Cc3cnc([C@@H]4CCCN4C(=O)[C@H](NC(=O)OC)c4ccccc4)[nH]3)c(-c3ccccc3)c2)[nH]1)C(C)C`, for which the half-inhibitory concentration (IC50) is 0.02 nM.

The term IC50 denotes the midpoint of a concentration-inhibition curve. By EC50 is commonly meant the concentration giving half of the maximal effect.
